Results taken from ChEMBL document CHEMBL4346705, “(±)-trans-Dihydronarciclasine and (±)-trans-dihydrolycoricidine analogues modified in their ring A: Evaluation of their anticancer activity and a SAR study” (2019).

Assays:
Format in all cases: functional
HT-29 = test: Antiproliferative activity against human HT-29 cells assessed as cell viability at 10^-5 M incubated for 48 hrs by sulforhodamine B assay relative to control; conditions: HT-29, 48 h, read-out: Activity
SF-268 = test: Antiproliferative activity against human SF268 cells assessed as cell viability at 10^-5 M incubated for 48 hrs by sulforhodamine B assay relative to control; conditions: SF-268, 48 h, read-out: Activity
MDA-MB-231 = test: Antiproliferative activity against human MDA-MB-231 cells assessed as cell viability at 10^-5 M incubated for 48 hrs by sulforhodamine B assay relative to control; conditions: MDA-MB-231, 48 h, read-out: Activity
SNB-75 = test: Antiproliferative activity against human SNB75 cells assessed as cell viability at 10^-5 M incubated for 48 hrs by sulforhodamine B assay relative to control; conditions: SNB-75, 48 h, read-out: Activity
NCI-H460 = test: Antiproliferative activity against human NCI-H460 cells assessed as cell viability at 10^-5 M incubated for 48 hrs by sulforhodamine B assay relative to control; conditions: NCI-H460, 48 h, read-out: Activity
SW-620 = test: Antiproliferative activity against human SW620 cells assessed as cell viability at 10^-5 M incubated for 48 hrs by sulforhodamine B assay relative to control; conditions: SW-620, 48 h, read-out: Activity
OVCAR-8 = test: Antiproliferative activity against human OVCAR8 cells assessed as cell viability at 10^-5 M incubated for 48 hrs by sulforhodamine B assay relative to control; conditions: OVCAR-8, 48 h, read-out: Activity
OVCAR-4 = test: Antiproliferative activity against human OVCAR4 cells assessed as cell viability at 10^-5 M incubated for 48 hrs by sulforhodamine B assay relative to control; conditions: OVCAR-4, 48 h, read-out: Activity
A498 = test: Antiproliferative activity against human A498 cells assessed as cell viability at 10^-5 M incubated for 48 hrs by sulforhodamine B assay relative to control; conditions: A498, 48 h, read-out: Activity
SNB-19 = test: Antiproliferative activity against human SNB19 cells assessed as cell viability at 10^-5 M incubated for 48 hrs by sulforhodamine B assay relative to control; conditions: SNB-19, 48 h, read-out: Activity
HCT-15 = test: Antiproliferative activity against human HCT15 cells assessed as cell viability at 10^-5 M incubated for 48 hrs by sulforhodamine B assay relative to control; conditions: HCT-15, 48 h, read-out: Activity
DU-145 = test: Antiproliferative activity against human DU145 cells assessed as cell viability at 10^-5 M incubated for 48 hrs by sulforhodamine B assay relative to control; conditions: DU-145, 48 h, read-out: Activity
HOP-62 = test: Antiproliferative activity against human HOP62 cells assessed as cell viability at 10^-5 M incubated for 48 hrs by sulforhodamine B assay relative to control; conditions: HOP-62, 48 h, read-out: Activity
CCRF-CEM = test: Antiproliferative activity against human CCRF-CEM cells assessed as cell viability at 10^-5 M incubated for 48 hrs by sulforhodamine B assay relative to control; conditions: read-out: Activity
BT-549 = test: Antiproliferative activity against human BT549 cells assessed as cell viability at 10^-5 M incubated for 48 hrs by sulforhodamine B assay relative to control; conditions: BT-549, 48 h, read-out: Activity
K562 = test: Antiproliferative activity against human K562 cells assessed as cell viability at 10^-5 M incubated for 48 hrs by sulforhodamine B assay relative to control; conditions: K562, 48 h, read-out: Activity
CAKI-1 = test: Antiproliferative activity against human Caki1 cells assessed as cell viability at 10^-5 M incubated for 48 hrs by sulforhodamine B assay relative to control; conditions: CAKI-1, 48 h, read-out: Activity
786-0 = test: Antiproliferative activity against human 786-0 cells assessed as cell viability at 10^-5 M incubated for 48 hrs by sulforhodamine B assay relative to control; conditions: 786-0, 48 h, read-out: Activity
HOP-92 = test: Antiproliferative activity against human HOP92 cells assessed as cell viability at 10^-5 M incubated for 48 hrs by sulforhodamine B assay relative to control; conditions: HOP-92, 48 h, read-out: Activity
HL-60(TB) = test: Antiproliferative activity against human HL-60(TB) cells assessed as cell viability at 10^-5 M incubated for 48 hrs by sulforhodamine B assay relative to control; conditions: HL-60, 48 h, read-out: Activity
U-251 = test: Antiproliferative activity against human U251 cells assessed as cell viability at 10^-5 M incubated for 48 hrs by sulforhodamine B assay relative to control; conditions: U-251, 48 h, read-out: Activity
TK-10 = test: Antiproliferative activity against human TK10 cells assessed as cell viability at 10^-5 M incubated for 48 hrs by sulforhodamine B assay relative to control; conditions: TK-10, 48 h, read-out: Activity
Hs-578T = test: Antiproliferative activity against human Hs 578T cells assessed as cell viability at 10^-5 M incubated for 48 hrs by sulforhodamine B assay relative to control; conditions: read-out: Activity
UACC-62 = test: Antiproliferative activity against human UACC62 cells assessed as cell viability at 10^-5 M incubated for 48 hrs by sulforhodamine B assay relative to control; conditions: UACC-62, 48 h, read-out: Activity
RXF 393 = test: Antiproliferative activity against human RXF393 cells assessed as cell viability at 10^-5 M incubated for 48 hrs by sulforhodamine B assay relative to control; conditions: RXF 393, 48 h, read-out: Activity
Malme-3M = test: Antiproliferative activity against human MALME-3M cells assessed as cell viability at 10^-5 M incubated for 48 hrs by sulforhodamine B assay relative to control; conditions: read-out: Activity
MCF7 = test: Antiproliferative activity against human MCF7 cells assessed as cell viability at 10^-5 M incubated for 48 hrs by sulforhodamine B assay relative to control; conditions: MCF7, 48 h, read-out: Activity
MDA-MB-435 = test: Antiproliferative activity against human MDA-MB-435 cells assessed as cell viability at 10^-5 M incubated for 48 hrs by sulforhodamine B assay relative to control; conditions: MDA-MB-435, 48 h, read-out: Activity
SF-539 = test: Antiproliferative activity against human SF539 cells assessed as cell viability at 10^-5 M incubated for 48 hrs by sulforhodamine B assay relative to control; conditions: SF-539, 48 h, read-out: Activity
SK-MEL-2 = test: Antiproliferative activity against human SK-MEL-2 cells assessed as cell viability at 10^-5 M incubated for 48 hrs by sulforhodamine B assay relative to control; conditions: SK-MEL-2, 48 h, read-out: Activity
MOLT-4 = test: Antiproliferative activity against human MOLT4 cells assessed as cell viability at 10^-5 M incubated for 48 hrs by sulforhodamine B assay relative to control; conditions: MOLT-4, 48 h, read-out: Activity
ACHN = test: Antiproliferative activity against human ACHN cells assessed as cell viability at 10^-5 M incubated for 48 hrs by sulforhodamine B assay relative to control; conditions: read-out: Activity

SMILES	viability at 10 µM (HT-29) [%]	viability at 10 µM (SF-268) [%]	viability at 10 µM (MDA-MB-231) [%]	viability at 10 µM (SNB-75) [%]	viability at 10 µM (NCI-H460) [%]	viability at 10 µM (SW-620) [%]	viability at 10 µM (OVCAR-8) [%]	viability at 10 µM (OVCAR-4) [%]	viability at 10 µM (A498) [%]	viability at 10 µM (SNB-19) [%]	viability at 10 µM (HCT-15) [%]	viability at 10 µM (DU-145) [%]	viability at 10 µM (HOP-62) [%]	viability at 10 µM (CCRF-CEM) [%]	viability at 10 µM (BT-549) [%]	viability at 10 µM (K562) [%]	viability at 10 µM (CAKI-1) [%]	viability at 10 µM (786-0) [%]	viability at 10 µM (HOP-92) [%]	viability at 10 µM (HL-60(TB)) [%]	also measured
CCOc1c(OC)cc2c(c1OCC)C(=O)NC1C2CC(O)C(O)C1O (racemic)	99.6	91.3	107	92.4	107	106	97.1	103	110	103	102	110	106	102	103	91.8	85.2	103	84	86.6	viability at 10 µM (U-251): 100%; viability at 10 µM (TK-10): 97.1%; viability at 10 µM (Hs-578T): 99.3%; viability at 10 µM (UACC-62): 95.7%; viability at 10 µM (RXF 393): 104%; viability at 10 µM (Malme-3M): 103%; viability at 10 µM (MCF7): 95.2%; viability at 10 µM (MDA-MB-435): 105%; viability at 10 µM (SF-539): 106%; viability at 10 µM (SK-MEL-2): 103%; viability at 10 µM (MOLT-4): 80.9%; viability at 10 µM (ACHN): 104%
COc1cc2c(c3c1OCCO3)C(=O)NC1C2CC(O)C(O)C1O (racemic)	102	98.3	103	100	106	107	95.2	108	100	100	102	103	100	103	98.3	106	93.4	95.6	77.7	96.7	viability at 10 µM (U-251): 100%; viability at 10 µM (TK-10): 98%; viability at 10 µM (Hs-578T): 99.8%; viability at 10 µM (UACC-62): 99.3%; viability at 10 µM (RXF 393): 106%; viability at 10 µM (Malme-3M): 103%; viability at 10 µM (MCF7): 97.3%; viability at 10 µM (MDA-MB-435): 110%; viability at 10 µM (SF-539): 105%; viability at 10 µM (SK-MEL-2): 110%; viability at 10 µM (MOLT-4): 105%; viability at 10 µM (ACHN): 108%
COc1c2c(cc3c1C(=O)NC1C3CC(O)C(O)C1O)OCCO2 (racemic)	106	97.9	109	99.3	109	104	100	105	104	102	102	107	99.9	105	99.5	95.6	94	97.4	91.6	95.4	viability at 10 µM (U-251): 100%; viability at 10 µM (TK-10): 95.7%; viability at 10 µM (Hs-578T): 96.2%; viability at 10 µM (UACC-62): 96.7%; viability at 10 µM (RXF 393): 102%; viability at 10 µM (Malme-3M): 106%; viability at 10 µM (MCF7): 93.9%; viability at 10 µM (MDA-MB-435): 108%; viability at 10 µM (SF-539): 106%; viability at 10 µM (SK-MEL-2): 100%; viability at 10 µM (MOLT-4): 99.6%; viability at 10 µM (ACHN): 103%
CCOc1cc2c(c(OC)c1OCC)C(=O)NC1C2CC(O)C(O)C1O (racemic)	98.3	95.4	107	98.8	102	109	99.8	105	102	97.7	99.5	106	104	96.9	101	98.3	90.1	96.1	86.4	86.8	viability at 10 µM (U-251): 95.4%; viability at 10 µM (TK-10): 100%; viability at 10 µM (Hs-578T): 99.8%; viability at 10 µM (UACC-62): 97.3%; viability at 10 µM (RXF 393): 105%; viability at 10 µM (Malme-3M): 111%; viability at 10 µM (MCF7): 97.6%; viability at 10 µM (MDA-MB-435): 107%; viability at 10 µM (SF-539): 102%; viability at 10 µM (SK-MEL-2): 110%; viability at 10 µM (MOLT-4): 99.3%; viability at 10 µM (ACHN): 104%
CCOc1cc2c(c(OCC)c1OCC)C(=O)NC1C2CC(O)C(O)C1O (racemic)	104	99.5	121	93	109	107	102	105	102	104	104	113	102	99.1	108	98.4	94.2	97.9	82.8	96.1	viability at 10 µM (U-251): 101%; viability at 10 µM (TK-10): 98.5%; viability at 10 µM (Hs-578T): 99.1%; viability at 10 µM (UACC-62): 101%; viability at 10 µM (RXF 393): 110%; viability at 10 µM (Malme-3M): 112%; viability at 10 µM (MCF7): 95.6%; viability at 10 µM (MDA-MB-435): 104%; viability at 10 µM (SF-539): 97%; viability at 10 µM (SK-MEL-2): 99.2%; viability at 10 µM (MOLT-4): 99.2%; viability at 10 µM (ACHN): 105%
